We go through 5 cell lines from the supplement of paper PMC10307832.

Common to all, as to experiment: relative viability (nuclei count vs DMSO), 5 days (fraction); higher = more cells survive
Compound in assay [1]: C#Cc1cccc(Nc2ncnc3cc(OC)c(OCCCCCCC(=O)NO)cc23)c1 [CUDC-101] + NC(=O)Nc1cc(-c2cccc(F)c2)sc1C(=O)N[C@H]1CCCNC1 [AZD7762] (partner 0.2 µM)
In outline: (§1)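 Lung cancer cell lines in 1536-well plates got either a single drug or a fixed anchor-drug dose together with five library-drug doses (not always all listed) in √10 steps, by pin tool, on the day after seeding. Nuclei were counted after 5 days, and relative viability is the treated-to-vehicle ratio of nuclei counts. Values are medians of duplicate plates.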

Compound in assay [2]: COc1cc(N2CCC(N3CCN(C)CC3)CC2)ccc1Nc1ncc(Cl)c(Nc2ccccc2S(=O)(=O)C(C)C)n1 [NVP-TAE684] + N=C(N)NC(=N)NCCc1ccccc1 [Phenformin] (partner 250 µM)
A digest of the protocol:
as §1

Compound in assay [3]: COc1cc2/c(=N/c3ccc(Br)cc3F)nc[nH]c2cc1OCC1CCN(C)CC1 [Vandetanib] + COc1cc2c(Oc3ccc(NC(=O)C4(C(=O)Nc5ccc(F)cc5)CC4)cc3F)ccnc2cc1OCCCN1CCOCC1 [Foretinib] (partner 0.25 µM)
In outline:
as §1

Compound in assay [4]: COc1cc2/c(=N/c3ccc(Br)cc3F)nc[nH]c2cc1OCC1CCN(C)CC1 [Vandetanib] + O=C(c1cc(Cc2n[nH]c(=O)c3ccccc23)ccc1F)N1CCN(C(=O)C2CC2)CC1 [Olaparib] (partner 8 µM)
A digest of the protocol:
as §1

Take NCI-H596: the relative viability came to 1.09 in assay [1] (first compound 0.01 µM); 1.09 in assay [1] (first compound 0.03162 µM); 1.12 in assay [1] (first compound 0.1 µM); 1.07 in assay [1] (first compound 0.3162 µM); 1.04 in assay [1] (first compound 1 µM); 0.709 in assay [2] (first compound 0.2 µM). Moreover, the relative viability in assay [2] (first compound 0.6325 µM) came out at 0.656; in assay [2] (first compound 2 µM), 0.579; in assay [3] (first compound 0.02 µM), 0.918; in assay [3] (first compound 0.06325 µM), 0.785; in assay [3] (first compound 0.2 µM), 0.741; in assay [3] (first compound 0.6325 µM) it was 0.838. Moreover, the relative viability turned out to be 0.731 in assay [3] (first compound 2 µM); 0.616 in assay [4] (first compound 0.02 µM); 0.62 in assay [4] (first compound 0.06325 µM); 0.726 in assay [4] (first compound 0.2 µM); 0.655 in assay [4] (first compound 0.6325 µM); 0.705 in assay [4] (first compound 2 µM).

As to PC-3 [JPC-3], the relative viability in assay [1] (first compound 0.01 µM) came to 0.731; in assay [1] (first compound 0.03162 µM), 0.752; in assay [1] (first compound 0.1 µM) it was 0.65; in assay [1] (first compound 0.3162 µM) it was 0.538; in assay [1] (first compound 1 µM), 0.361; in assay [2] (first compound 0.2 µM), 0.477. The relative viability stood at 0.436 in assay [2] (first compound 0.6325 µM); 0.454 in assay [2] (first compound 2 µM); 0.984 in assay [3] (first compound 0.02 µM); 0.904 in assay [3] (first compound 0.06325 µM); 0.936 in assay [3] (first compound 0.2 µM); 0.894 in assay [3] (first compound 0.6325 µM). Further, the relative viability in assay [3] (first compound 2 µM) amounted to 0.468; in assay [4] (first compound 0.02 µM), 1.06; in assay [4] (first compound 0.06325 µM), 0.961; in assay [4] (first compound 0.2 µM), 1.06; in assay [4] (first compound 0.6325 µM) it was 0.747; in assay [4] (first compound 2 µM) it was 0.557.

Regarding NCI-H1993, the relative viability is 0.811 in assay [1] (first compound 0.01 µM); 0.87 in assay [1] (first compound 0.03162 µM); 0.855 in assay [1] (first compound 0.1 µM); 0.704 in assay [1] (first compound 0.3162 µM); 0.428 in assay [1] (first compound 1 µM); 0.508 in assay [2] (first compound 0.2 µM). Besides, the relative viability in assay [2] (first compound 0.6325 µM) is 0.467; in assay [2] (first compound 2 µM), 0.519; in assay [3] (first compound 0.02 µM), 0.836; in assay [3] (first compound 0.06325 µM), 0.78; in assay [3] (first compound 0.2 µM), 0.557; in assay [3] (first compound 0.6325 µM), 0.788. For the same cell line, the relative viability was 0.64 in assay [3] (first compound 2 µM); 1.06 in assay [4] (first compound 0.02 µM); 0.977 in assay [4] (first compound 0.06325 µM); 1.16 in assay [4] (first compound 0.2 µM); 0.911 in assay [4] (first compound 0.6325 µM); 0.893 in assay [4] (first compound 2 µM).

Turning to NCI-H1355, the relative viability in assay [1] (first compound 0.01 µM) was found to be 0.657; in assay [1] (first compound 0.03162 µM) it was 0.645; in assay [1] (first compound 0.1 µM), 0.846; in assay [1] (first compound 0.3162 µM), 0.747; in assay [1] (first compound 1 µM), 0.598; in assay [2] (first compound 0.2 µM), 0.431. Moreover, the relative viability amounted to 0.391 in assay [2] (first compound 0.6325 µM); 0.327 in assay [2] (first compound 2 µM); 0.94 in assay [3] (first compound 0.02 µM); 0.981 in assay [3] (first compound 0.06325 µM); 1 in assay [3] (first compound 0.2 µM); 0.936 in assay [3] (first compound 0.6325 µM). Besides, the relative viability in assay [3] (first compound 2 µM) was 0.946; in assay [4] (first compound 0.02 µM) it was 0.754; in assay [4] (first compound 0.06325 µM) it was 0.665; in assay [4] (first compound 0.2 µM), 0.734; in assay [4] (first compound 0.6325 µM), 0.825; in assay [4] (first compound 2 µM), 0.684.

With NCI-H23, the relative viability in assay [1] (first compound 0.01 µM) came out at 0.293; in assay [1] (first compound 0.03162 µM) it was 0.161; in assay [1] (first compound 0.1 µM), 0.282; in assay [1] (first compound 0.3162 µM), 0.276; in assay [1] (first compound 1 µM), 0.226; in assay [2] (first compound 0.2 µM), 0.987. In addition, the relative viability in assay [2] (first compound 0.6325 µM) is 0.757; in assay [2] (first compound 2 µM), 0.518; in assay [3] (first compound 0.02 µM), 0.917; in assay [3] (first compound 0.06325 µM) it was 1; in assay [3] (first compound 0.2 µM) it was 0.304; in assay [3] (first compound 0.6325 µM), 0.947. Further, the relative viability in assay [3] (first compound 2 µM) was found to be 0.898; in assay [4] (first compound 0.02 µM), 0.346; in assay [4] (first compound 0.06325 µM), 0.275; in assay [4] (first compound 0.2 µM), 0.328; in assay [4] (first compound 0.6325 µM) it was 0.343; in assay [4] (first compound 2 µM), 0.335.
